US12398120B2, “Substituted hydantoinamides as ADAMTS7 antagonists” (BAYER AKTIENGESELLSCHAFT, priority 2019, dated 2025)

molecular target: ADAMTS4 (Homo sapiens (Human), UniProt O75173); assay: Selectivity assay for ADAMTS-7 modulators: ADAMTS4 (FRET substrate); type: biochemical; settings: ADAMTS4 (R&D 4307-AD) 50 nM, substrate Dabcyl-EEVKAKVQPY-Glu(Edans)-NH2 1 μM, 120 min, 32° C.
Method in brief: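 Human ADAMTS4 with compound in DMSO, or DMSO control; reaction started by adding FRET substrate in reaction buffer. Fluorescence increase measured at substrate-specific wavelengths. IC50 derived from % inhibition of enzyme activity versus compound concentration.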

ADAMTS4, sequence (O75173 213-685): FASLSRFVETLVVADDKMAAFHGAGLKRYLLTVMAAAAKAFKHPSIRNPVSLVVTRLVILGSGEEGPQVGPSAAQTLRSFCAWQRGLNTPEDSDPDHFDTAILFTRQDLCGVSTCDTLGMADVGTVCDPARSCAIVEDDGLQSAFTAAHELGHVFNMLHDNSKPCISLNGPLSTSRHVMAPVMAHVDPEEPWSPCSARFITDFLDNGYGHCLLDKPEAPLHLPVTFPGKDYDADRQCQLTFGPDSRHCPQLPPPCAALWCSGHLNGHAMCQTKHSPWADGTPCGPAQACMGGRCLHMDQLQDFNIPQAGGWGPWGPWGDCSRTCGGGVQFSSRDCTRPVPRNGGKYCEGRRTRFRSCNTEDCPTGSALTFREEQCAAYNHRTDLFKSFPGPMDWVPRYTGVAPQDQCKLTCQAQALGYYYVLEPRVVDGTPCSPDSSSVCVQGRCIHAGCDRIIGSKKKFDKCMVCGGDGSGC

SMILES | IC50 [µM]
O=C1NC(=O)C(CNC(=O)c2ccc(F)cc2-c2ccc(C(F)(F)F)cc2)(c2ccnn2C(F)F)N1 (stereo not drawn) [Example 296, Ent-N-({4-[1-(Difluoromethyl)-1H-Pyrazol-5-Yl]-2,5-Dioxoimidazolidin-4-Yl}Methyl)-5-Fluoro-4′-(Trifluoromethyl)[Biphenyl]-2-Carboxamide] | 9.5
Cn1cncc1C1(CNC(=O)c2ccccc2-c2ccc(C(F)(F)F)cc2)NC(=O)NC1=O (stereo not drawn) [Example 297, Ent-N-{[4-(1-Methyl-1H-Imidazol-5-Yl)-2,5-Dioxoimidazolidin-4-Yl]Methyl}-4′-(Trifluoromethyl)[Biphenyl]-2-Carboxamide] | 4.1
Cc1cc(C2(CNC(=O)c3ccccc3-c3ccc(C(F)(F)F)cc3)NC(=O)NC2=O)n(C)n1 (stereo not drawn) [Example 302, Ent-N-{[4-(1,3-Dimethyl-1H-Pyrazol-5-Yl)-2,5-Dioxoimidazolidin-4-Yl]Methyl}-4′-(Trifluoromethyl)[Biphenyl]-2-Carboxamide] | 7.6
